What was measured:
HLA-C*14:02 = HLA-C*14:02 (Homo sapiens, UniProt P10321, A176E/A330V/A35S/A97T/C350S/D114A/D33S/L171W/L180R/L218V/M285V/M309V/M331V/P208H/Q277E/Q291P/R121W/R243W/S123F/S297R/S48A/T329A/T363A/V319A); experiment: LC-MS/MS identification of HLA-bound HIV-1 peptides from NL4-3-infected .221-C1402 cells; assay type: binding; parameters: key: ●: Closed circles indicate the peptide which was identified in HLA-C*1402 or/and -C*1403 expressing cells; details: HIV-1 NL4-3-infected .221-C1402 cells, W6/32 immunoprecipitation, two independent replicate experiments
Protocol: (§1) 721.221 cells expressing CD4 and HLA-C*14:02 (.221-C1402) or HLA-C*14:03 (.221-C1403) were infected with the laboratory-adapted NL4-3 HIV-1 strain. HLA-peptide complexes were isolated from cell lysates by immunoprecipitation with the anti-HLA class I antibody W6/32; then, peptides were eluted, fractionated by high-performance liquid chromatography (HPLC), and finally analyzed by LC-MS/MS. Two independent replicate experiments were performed, in which a total of 7,970 and 8,447 unique 8- to 13-mer peptide sequences were identified from .221-C1402 and .221-C1403 cells, respectively (Fig. 1A). Of these peptides, 6,163 were identified in both the C*14:02- and C*14:03-bound peptide data sets, while other peptides were detected in the acid-eluted fraction from only a single allele. […] These motifs are consistent with the HLA-C*1402/03 peptide motifs previously estimated using reported epitopes ([29]).
(§2) .221-C1402 and .221-C1403 cells were infected with HIV-1 NL4-3 in a low volume of RPMI 1640 medium (Thermo Fisher) containing 10% fetal bovine serum (FBS), 2 mM L-glutamine, 100 U/mL penicillin, 100 μg/mL streptomycin, and 10 mM HEPES (R10). Fifty microliters of NL4-3 stock virus (Reverse transcriptase activity (RT) value = 4 × 10^2 ng/mL) was added to 8 × 10^6 .221-C1402 cells or .221-C1403, and the cells were then incubated for 1.5 h at 37°C, after which 20 mL of R10 was added and the cells were cultured overnight. At day 1 postinfection, a further 20 mL R10 was added, and cells were split (1:2) on day 2. On day 3 postinfection, the proportion of cells infected with HIV-1 was determined by intracellular p24 staining, as previously described ([46]). Infected flasks were then harvested for immunoprecipitation of HLA-peptide complexes.
(§3) .221-C1402 cells or .221-C1403 cells infected with NL4-3 (1.5 × 10^8 to 2 × 10^8 cells) were harvested, washed in phosphate-buffered saline (PBS), and lysed in 5 mL of lysis buffer (1% IGEPAL 630, 300 mM NaCl, 100 mM Tris [pH 8.0], plus protease inhibitors) at 4°C for 45 min. Two centrifugation steps (2,000 × g for 10 min followed by 20,000 × g for 30 min at 4°C) were next employed to clear the lysates of cell debris prior to overnight capture of HLA-peptide complexes on W6/32-coated protein A‐Sepharose beads. W6/32-bound HLA-peptide complexes were sequentially washed with 10 to 20 mL of wash buffer 1 (0.005% IGEPAL, 50 mM Tris [pH 8.0], 150 mM NaCl, 5 mM EDTA), wash buffer 2 (50 mM Tris [pH 8.0], 150 mM NaCl), wash buffer 3 (50 mM Tris [pH 8.0], 400 mM NaCl), and finally wash buffer 4 (50 mM Tris [pH 8.0]) under gravity flow in Econo-Column glass chromatography columns (Bio-Rad). Peptide-HLA complexes were eluted from the beads with 5 mL of 10% acetic acid and, after drying under vacuum, were loaded onto a 4.6- by 50-mm ProSwift RP-1S column (Thermo Fisher Scientific) and eluted from an Ultimate 3000 HPLC system (Thermo Scientific) using a 500-μL/min flow rate over 10 min from 2% to 34% buffer B (0.1% trifluoroacetic acid [TFA] in acetonitrile) in buffer A (0.1% TFA in water). Alternate fractions were pooled to give two final peptide fractions that were dried for LC-MS/MS analysis.
(§4) Each HPLC-eluted sample was resuspended in 20 μL loading buffer, and 9 μL of it was injected onto a 3-μm-particle-size 0.075-mm by 150-mm Acclaim PepMap RSLC C18 column and further loaded onto a 2-μm-particle-size, 75-μm by 50-cm Acclaim PepMap RSLC C18 column using an Ultimate 3000 nUPLC system (Thermo Scientific). A linear gradient of 3 to 25% buffer B (0.1% formic acid, 5% dimethyl sulfoxide [DMSO] in acetonitrile) in buffer A (0.1% formic acid, 5% DMSO in water) was applied over 1 h to elute peptides from the column (flow rate of […]). Peptides were introduced, using an Easy-Spray source at 2,000 V at 40°C, into a Fusion Lumos mass spectrometer (Thermo Scientific). The ion transfer tube temperature was set to 305°C. […]

HLA-C*14:03 = HLA-C*14:03 (Homo sapiens, UniProt P10321, A176E/A330V/A35S/A97T/C350S/D114A/D33S/L171W/L180R/L218V/M285V/M309V/M331V/P208H/Q277E/Q291P/R121W/R243W/R45H/S123F/S297R/S48A/T329A/T363A/V319A); experiment: LC-MS/MS identification of HLA-bound HIV-1 peptides from NL4-3-infected .221-C1403 cells; assay type: binding; parameters: key: ●: Closed circles indicate the peptide which was identified in HLA-C*1402 or/and -C*1403 expressing cells; details: HIV-1 NL4-3-infected .221-C1403 cells, W6/32 immunoprecipitation, two independent replicate experiments
Protocol: as §1, §2, §3, §4

| Sequence | C1402: peptide identified by LC-MS/MS in HLA-I eluate (HLA-C*14:02) | C1403: peptide identified by LC-MS/MS in HLA-I eluate (HLA-C*14:03) |
| --- | --- | --- |
| AFHHVAREL [Nef AL9] | ● | ● |
| AFSPEVIPM [Gag AM9] | ● |  |
| ASGYIEAEV [Pol AV9, HIV-1 NL4-3 Pol 795–803 peptide …] |  | ● |
| FFREDLAF [Pol FF8, HIV-1 NL4-3 Pol 1–8 peptide FFREDLAF] |  | ● |
| FLGAAGSTM [Env FM9, HIV-1 NL4-3 Env 522–530 peptide …] | ● | ● |
| FMTKALGI [Tat FI8, HIV-1 NL4-3 Tat 38–45 peptide FMTKALGI] |  | ● |
| IYHTQGYF [Nef IF8] | ● | ● |
| KYHSNWRAM [Pol KM9] | ● | ● |
| LYNTIAVLY [Gag LY9] | ● | ● |
| RFDSRLAF [Nef RF8, HIV-1 NL4-3 Nef 184–191 peptide RFDSRLAF] | ● | ● |
| VYYDPSKDL [Pol VYL9, HIV-1 NL4-3 Pol 472–480 peptide …] | ● | ● |
| YFPDWQNYT [Nef YT9] | ● | ● |
